Here are results for 1 substance from patent US20250186597A1, “TARGETED IMMUNE ACTIVATION WITH IL-18 IMMUNOCYTOKINES” (BRIGHT PEAK THERAPEUTICS AG, priority 2023, published 2025).

What all share (type): cell-based, human
Test [1] relates to PD-1positive transduced NK-92 cells. The test can be described thus: IL-18BP mediated inhibition of IFN gamma secretion in PD-1 positive transduced NK-92 cells (Example 18). The method, then:
To characterize the resistance of anti-PD1-IL18 immunocytokines (IC) on PD-1 positive cells, the NK-92 cell line was used to generate a PD-1 expressing cell line and furthermore, to measure the inhibition of IFN[…] release upon incubation with IL-18 variants and ICs in the presence of increasing quantities of human IL-18BP.
On the day of experiment, parental PD-1^negative and PD-1^positive transduced cells were harvested and washed with PBS 1× and resuspended in medium (w/o IL-2) containing 1 ng/ml of recombinant human Interleukin-12 (SinoBiologicals, Cat #CT011-H08H). After counting, cells were seeded at 100 000 cells/well in a 384 well culture plate and incubated at 37° C./5% CO2. When indicated, cells were preincubated with anti-PD-1 antibody LZM-009 at 17 uM during 30 min at 37° C. […]
After 16-20 h incubation at 37° C./5% CO2, 5 μl of supernatant were carefully transferred to a 384 microwell OptiIPlate (Perkin Elmer; Cat #6007270) and Interferon-gamma (IFNγ) levels measured using the Human IFNγ AlphaLISA Assay Kit (Perkin Elmer, Cat #AL217C). […] AlphaLISA signal was then measured on an Enspire plate reader (Perkin Elmer) using 680 and 615 nm as excitation and emission wavelengths respectively. Half maximal inhibitory concentration (IC50) was calculated based on a variable slope, four parameter analysis using GraphPad PRISM software.

Test [2] has as its system NK92 cells. Description: IFN gamma secretion assay in NK92 cells (Example 10). To be noted: IFNγ secretion, 1 ng/ml IL-12. The method, then:
The IFNγ-secretion stimulating activity of the unconjugated IL-18 variants and corresponding IL-18 immunocytokines was evaluated on NK92 cell line. The NK cell line NK-92 derived from a patient with lymphoma (ATCC, Cat #CRL-2407) was cultured in aMEM medium supplemented with 12.5% FCS, 12.5% horse serum (HS), 50 uM B-mercaptoEthanol, and 2 ng/ml of recombinant Human Interleukin-2 (IL-2).
On the day of experiment, cells were harvested and washed with aMEM medium without IL-2 and resuspended in medium (w/o IL-2) containing 1 ng/ml of recombinant human Interleukin-12 (SinoBiologicals, Cat #CT011-H08H). After counting, cells were seeded at 100 000 cells/well in a 384 well titer plate and incubated at 37° C./5% CO2. Sixteen 4-fold serial dilutions of IL-18 analytes were prepared in aMEM medium—1 ng/ml IL-12 and were added to the NK-92 cells. […]
After 16-20 h incubation at 37° C./5% CO2, 5 μl of supernatant were carefully transferred to a 384 microwells OPTIPlate (Perkin Elmer; Cat #6007270) and Interferon-gamma (IFNγ) levels measured using the Human IFNγ AlphaLISA Assay Kit (Perkin Elmer, Cat #AL217C). […] AlphaLisa signal was then measured on an Enspire plate reader (Perkin Elmer) using 680 and 615 nm as excitation and emission wavelengths respectively. Half maximal effective concentration (EC50) was calculated based on a variable slope, four parameter analysis using GraphPad PRISM software.

The test system of test [3] is NK92 cells. The test can be described thus: Cellular IL-18 Binding Protein resistance assay in NK92 cells (Example 13). The note with it: IL-18BP-mediated inhibition of IFNγ secretion, IL-18 analyte 1 nM. The method, then: The NK cell line NK-92 derived from a patient with lymphoma (ATCC, Cat #CR^L-2407) was cultured in αMEM medium supplemented with 20% FCS-Glutamax, 25 μM B-mercaptoethanol, and 100 IU/ml of recombinant Human Interleukin-2 (IL-2). On the day of experiment, cells were harvested and washed with αMEM medium without IL-2. After counting, cells were seeded at 100 000 cells/well in a 384 well titer plate and incubated at 37° C./5% CO2. Sixteen 2-fold serial dilutions of Fc fused human IL-18 binding protein isoform a (IL-18BPa; R&D systems, Cat #119-BP) were prepared in αMEM medium—1 ng/ml IL-12 containing 2 nM of each IL-18 variants and were added to the NK-92 cells. Final IL-18 analytes concentration was 1 nM and final IL-18BPa concentrations ranged from to 566 nM down to 17 pM.
After 16-20 h incubation at 37° C./5% CO2, 5 μl of supernatant were carefully transferred to a 384 microwells OPTIplate (Perkin Elmer; Cat #6007270) and Interferon-gamma (IFNγ) levels measured using the Human IFNγ AlphaLISA Assay Kit (Perkin Elmer, Cat #AL217C). […] AlphaLisa signal was then measured on an Enspire plate reader (Perkin Elmer) using 680 and 615 nm as excitation and emission wavelengths respectively. Half maximal inhibitory concentration (IC50) was calculated based on a variable slope, four parameter analysis using GraphPad PRISM software.

In the case of “SEQ ID NO: 1: Native sequence of human IL-18 (bioactive form) [reference compound]”, the half-inhibitory concentration (IC50) in test [1] (IL-18BP-mediated inhibition of IFNγ secretion, IL-18 analyte 1 nM) is 2.67 nM; in the test on NK92 cells [3], 0.781 nM. The “PD-1^pos/PD-1^neg IC50 ratio” value in test [1] (NK-92 cells) worked out at 1.2. The substance also registered an EC50 in the test on NK92 cells [2] of 0.374 nM.
